Earlier results in patent US20250170152A1, “Cannabinoid Dosage Form” (priority 2022, published 2025).
Where two headings read alike, the source gives them in different places.

Legend:
[1] = oral THC formulations
[2] = not given; remark: listed apart in the source
[3] = oral 800 mg CBD, eight subjects (Haney et al., 2016)
[4] = 20 mg/kg/day CBD groups, EMA LGS/DS Assessment Report (Epidiolex)

Row | SMILES | delay to reach peak plasma concentration [1] [min] | mean Cmax (one hour after oral capsule containing 5.4 mg CBD (Nadulski et al., 2005a)) [ng/mL] | mean Cmax (oral 10 mg CBD (Guy and Robson, 2004b)) [ng/mL] | mean Cmax [3] [ng/mL] | mean Tmax [3] [h] | time CBD remained detectable after administration (oral capsule 5.4 mg CBD (Nadulski et al., 2005b)) [h] | mean Cmax (oral capsule 5.4 mg CBD, subset (n=12) with standard breakfast meal 1 h after the capsules) [ng/mL] | TEAE decrease of appetite, incidence [2, 4] [%] | weight loss, incidence [2, 4] [%] | TEAE of diarrhoea, incidence ([2]; 5-20 mg/kg/day, LGS/DS population (Epidiolex)) | TEAE of diarrhoea, incidence ([2]; 25-50 mg/kg/day, TSC population, EMA TSC Assessment Report (Epidiolex))
1 | CCCCCc1cc(O)c2c(c1)OC(C)(C)[C@@H]1CCC(C)=C[C@@H]21 [THC, delta-9-tetrahydrocannabinol] | ~120 | – | – | – | – | – | – | – | – | – | –
2 | C=C(C)C1CCC(C)=CC1c1c(O)cc(CCCCC)cc1O (centres unmarked) [CBD, 2-[3-methyl-6-(1-methylethenyl)-2-cyclohexen-1-yl]-5-pentyl-1,3-benzenediol] | – | 0.93 | 2.47 | 77.9 | 3.0 | 3 to 4 | 1.13 | 22 | 11 | 12.9-21.2% | 30.7-56.2%
